Test results from patent US10946019B2, “Nurr1:RXR activating compounds for simultaneous treatment of symptoms and pathology of Parkinson's disease” (priority 2015, dated 2021).

Assays:
[1] = system: tyrosine hydroxylase (TH); assay: Midbrain tyrosine hydroxylase expression by qPCR after administration to mice; format: in vivo, mouse; settings: wt mice, single IP 10 mg/kg, within 4 hours
Method: To assess the neuroprotective effect of compound 3, this compound was dosed to wt mice intraperitoneally (IP) at 10 mg/kg injections of compound 3 in Ethanol:PG:Saline 10:30:60. After 2 h and 4 h animals (n=3 per time point) were sacrificed, and their brains obtained. After extraction c-jun and tyrosine hydroxylase (TH) levels in brain extract were determined by qPCR (FIG. 1E, 1F).
Given the role of Nurr1:RXRα activation in the transcriptional regulation of DA biosynthesis genes, we tested whether compound 3 could increase DA levels in wt and ASYN transgenic mice (Tofaris et al. J. Neurosci. 26:3942-3950, 2006), which display reduced striatal DA levels after reaching adulthood. […] Aiming to model PD based on human genetic data, we also tested whether compound 3 could increase DA levels in ASYN transgenic mice. A single IP injection of compound 3 (10 mg/kg) was able increase striatal DA (t test p=0.01069) and DA metabolite levels in ASYN transgenics as well (FIG. 75C) in comparison to mice receiving vehicle.

[2] = system: human midbrain-specific iPSc-derived DAergic neurons; assay: Survival of iPSc-derived DAergic neurons exposed to MPP+; format: cell-based; settings: within 24 hours, compared to vehicle
Method: To ascertain the translational therapeutic potential of compound 3, we tested whether human midbrain-specific iPSc-derived DAergic neurons, as indicated by positive staining and qPCR for the neuronal markers MAP2, TH, FoxA2, Lmx1 and En1, can be protected from MPP+ toxicity. Compound 3 was able to double the number of surviving neurons after MPP+ exposure within 24 hours, compared to vehicle (FIGS. 72J-72L). The surviving control neurons had fewer and retreating projections, indicating compromised function (FIG. 72K) while the neurons that had received compound 3 had retained a complex network of projections and contacts (FIG. 72L). In addition, we tested compound 3 in iPSc-derived DAergic neurons from a PD patient carrying the LRRK2-G2019S mutation.

[3] = system: wild type 129/SV mice treated with MPTP; assay: Neuroprotection against MPTP in wild type 129/SV mice; format: in vivo, mouse
Method: 20 mg/kg MPTP injections were administered 4 times at the zero day of treatment, spaced 2 hours apart. 7 days after the MPTP injections there was approximately an 80% reduction in striatal projections and 40%-50% dopaminergic neuron death in the SN.

[4] = system: SHSY-5Y dopaminergic cells; assay: MPP+ induced cell death, MTT assay; format: cell-based, human
Method: MPP+, eradicates approximately 75% of the cells in 24 hours. […] Naive Neuro2A cells (FIG. 2A) or SH-SY5Y neuroblastoma cells FIG. 2B,C) were cultured in RPMI 1640, 10% fetal bovine serum at 37° C. Cells were pretreated with compound 3 for 12-24 h. Subsequent change of culture medium with addition of 0, 1, 2 and 4 mM MPP+ induced cell death. MTT assays determined the relative number of surviving cells FIG. 2D).
Such assays were performed, for instance, by adding compound 46 (12.5 μM) to human origin SHSY-5Y dopaminergic cells in which death was induced by the mitochondria complex I inhibitor MPP+ (1-methyl-4-phenylpyridinium), the active metabolite of MPTP (1-methyl-4-phenyl-1,2,3,6-tetrahydropyridine). […] Most of the MPP+-treated cells receiving vehicle died, while the few surviving cells remained attached to the plate but were rounded and had lost all projections. These morphological changes indicated impaired neuronal function. On the contrary, cells treated with compound 46 appeared healthy, flattened, well-attached, and their projections remained intact.
We examined the neuroprotective capability of Nurr1:RXRα heterodimer activation in SHSY-5Y cells where death was induced by either the oxidative stress related H2O2 or the mitochondria complex I inhibitor MPP+ (1-methyl-4-phenylpyridinium) (FIG. 72B). […] The protection conferred by compound 3 was Nurr1-dependent, since it was abrogated by knocking-down endogenous Nurr1 mRNA (FIGS. 1E and 72D). The neuroprotective effects of compound 3 extend to damage induced by the PD-associated mutation G2019S in the Leucine-Rich Repeat Kinase 2 (LRRK2) gene, the most common genetic defect associated with clinical PD (Tofaris et al. J. Neurosci. 26:3942-3950, 2006). Rat cortical neurons, co-transfected with CMV-GFP for identification, and CMVLRRK2-G2019S cDNAs show increased apoptosis as assessed by DAPI staining, compared to control neurons co-transfected with a LRRK2 wt cDNA.

[5] = system: TH; assay: Expression of DA biosynthesis genes in SHSY-5Y by qPCR; format: cell-based, human; settings: 12.5 μM, vs vehicle
Source text: (§1) FIGS. 72A-72R show the ability of compound 3 to induce the expression of genes involved in dopamine biosynthesis as well as the neuroprotective effects of compound 3 in cell lines and patient iPCs-derived dopaminergic neurons. […] FIGS. 72F, 72G, 72H, and 72I show representative confocal microscopy images of the compound 3-treated primary rat cortical neurons. […] FIG. 72M-72R show the effects of compound 3 on PD patient iPS cell-derived dopaminergic neurons with the LRRK2-G2019S mutation or corrected mutation (GC). Compound 3 treatment rescues neurite length (M, expressed in […]), number (N) and branching (O) phenotypes. Representative images show staining with TuJ, TH and DAPI (FIGS. 72P, 72Q, and 72R).
(§2) Nurr1 regulates the transcription of DA biosynthesis genes (Kim et al. J. Neurochem. 85:622-634, 2003 and Gil et al. J Neurochem 101:142-150, 2007); however, whether this process is mediated by Nurr1:RXRα heterodimers is unknown.

[6] = system: GCH1; assay: as above; format: cell-based, human; settings: 12.5 μM, vs vehicle
Source text: as §1, §2

[7] = system: aromatic L-amino acid decarboxylase (AADC); assay: as above; format: cell-based, human; settings: 12.5 μM, vs vehicle
Source text: as §1, §2

Q: C=CCc1c(N(C)c2ccc(C(=O)O)cc2)nc(-c2ccccc2)nc1C(F)(F)F [Example 3, 4-((5-allyl-2-phenyl-6-(trifluoromethyl)pyrimidin-4-yl)(methyl)amino)benzoic acid] was tested. Which “TH gene expression in the midbrain” value [1] did it give?
A: increased

Q: What about the “number of surviving neurons after MPP+ exposure” value [2] of the same compound?
A: double

Q: What about the “neuroprotection against MPTP toxicity” value ([3]; 129sv wt mice) of the same compound?
A: equally effective

Q: And the “increase in number of surviving neuronal bodies” value ([3]; wild type 129/SV, MPTP, IP 10 mg/kg every 12 hours for 8 days)?
A: 33.5%

Q: What about the “cell survival against MPP+” value ([4]; 12.5 μM, varying concentrations of MPP+) of the same compound?
A: significantly increased cell survival

Q: What about the “number of surviving cells after MPP+” value ([4]; pretreated 12-24 h, MPP+ 24 hours, MTT) of the same compound?
A: approximately doubles

Q: And the “increase of TH expression” value [5]?
A: about 90%

Q: What about the “increase of GCH1 expression” value [6] of the same compound?
A: about 42%

Q: What about the “increase of AADC expression” value [7] of the same compound?
A: about 70%
